{"source": "patent EP0150787A2", "about": "“Compound having antibronchopneumopathic activity, process for its preparation and pharmaceutical compositions containing it” (PULITZER ITALIANA S.p.A., priority 1984, dated 1985)", "key": {"[1]": {"test_system": "rat", "experiment": "Bronchosecretogogue activity (Mawatari test, bronchial elimination of sodium fluorescein)", "type": "in vivo", "settings": "50 mg/kg i.p. (table head; text: oral route), percent increase of bronchial elimination", "description": "The bronchosecretogogue activity of PU 163 and, as a comparison, of Ambroxol has been determined in the rat using the method described by Mawatari (\"Experimental Studies on the Expectorant Action of Several Drugs\", Kagoshima Daigaku Igaku Zasshi, 27, 561, 1976). […] After the animals'sacrifice, the evaluation of the amound of sodium fluorescein present at the bronchial level has been carried out. The results obtained, reported in the Table 3, are expressed as percent increase of the bronchial elimination of sodium fluorescein of the groups treated with Ambroxol and PU 163 in comparison with a control group."}, "[2]": {"test_system": "chronic bronchitis induced by inhalation of SO in the rat", "experiment": "Chronic bronchitis induced by SO2 inhalation", "type": "in vivo", "settings": "50 mg/kg by gastric tube", "description": "The action of PU 163 in comparison with Ambroxol on the chronic bronchitis induced by inhalation of SO in the rat has been evaluated according to the method described by Quevauvillier e coll. (Therapie, XXII; 185-193; 1967). […] The efficacy of […] been evaluated in function of the regression degree of the pulmonary lesions induced by […] inhalation."}, "[3]": {"experiment": "Acute toxicity, oral route, method of Litchfield and Wilcoxon", "settings": "in vivo, os", "description": "The acute toxicity of PU 163 has been determined in the mouse and in the rat by the oral route accor ding to the method of Litchfield and Wilcoxon (J. Pharm. Exp. Therap. 1949, 96, 99)."}, "[4]": {"test_system": "trachea ciliate cells", "experiment": "Ciliary motility in the dog's trachea in vitro (transit speed of a charcoal bolus)", "type": "cell-based", "settings": "for SPEED OF CHARCOAL PARTICLES 5 Minutes mm/min. x̄ ± ES / SPEED OF CHARCOAL PARTICLES 10 Minutes mm/min x̄ ± ES / SPEED OF CHARCOAL PARTICLES 20 Minutes mm/min. x̄ ± ES / activation at 100 µg/mL: 10^-4 g/ml; for activation at 100 µg/mL: Canis lupus familiaris; for SPEED OF CHARCOAL PARTICLES Basal mm/min. x̄ ± ES: group later treated with 10^-4 g/ml", "description": "The mucolytic activity of many products is due in that they induce an increase of motility in the trachea ciliate cells.\nThe method hereinafter described allows to assess \"in vitro\" if a compound increases, or not, the motility of said cells. The method is based on the measurement of the transit speed of a charcoal bolus in a section of trachea.\nThe method used is that described by J.E. Lightowler and N.H. Lightowler (Arch. Int. Pharmacodyn. 189, 53-58, 1971) and uses an apparatus similar to that described by T. Dalhamn (Acta Physiol. Scand. Suppl. 123, 1956)."}, "[5]": {"test_system": "pulmonary emphysema induced in the guinea pig", "experiment": "Pulmonary emphysema induced by intratracheal porcine pancreatic elastase", "type": "in vivo", "settings": "50 mg/kg i.p. 1 hour after the elastase injection", "protocol": "The ability of PU 163 of antagonizing the pulmonary emphysema induced in the guinea pig by intratracheal injection of 0.1 mg of porcine pancrea tic elastase has been evaluated in comparison with Ambroxol, according to the method described by Stone P.J. et al. (Am. Rev. Resp. Dis. 124/1, 56-59; 1981). Both compounds have been administered by the i.p. route at the equiponderant dose of 50 mg/kg 1 hour after the elastase injection."}, "[6]": {"experiment": "Pharmacokinetics and organ distribution by HPLC", "type": "in vivo", "settings": "rat, oral route, equimolar dose corresponding to 50 mg/kg of Ambroxol base", "protocol": "The pharmacokynetics behaviour and the distribu tion in the organs of PU 163, in comparison to Ambroxol, has been determined in the rat after ad ministration by the oral route of equimolar doses, corresponding to 50 mg/kg of Ambroxol base."}, "[7]": {"test_system": "alveolar surfactant", "experiment": "Activity on the alveolar surfactant (static volume-pulmonary pressure curves)", "type": "in vivo", "settings": "rat, 50 mg/kg p.o.", "protocol": "This test allow to verify if a compound can modi fy the surfaces of lung alveoli, as there are pathological conditions in which a superficial firm is produced in the alveoli which, as time goes on, can produce foam in the bronchi, making the respiration difficult. In order to assess this kind of activity, the method described by Curty P.C. (Arzneim. Forsch. Drug. Res., 24, 847, 1974) is used. According to said method the volume and the pressure after insufflation in the rat's lung, are measured. […] After sacrifice, and after the trachea incan nulation, the respiratory apparatus has been extracted from the thoracic cavity and the static cur ves of volume-pulmonary pressure."}, "[8]": {"test_system": "elastase", "experiment": "Elastase inhibition (method of R.M. Senior)", "type": "biochemical", "description": "The inhibiting activity of PU 163 and of Ambroxol on elastase has been measured according to the method described by R.M. Senior (Plenum Press. New York; 249-254; 1977)."}, "[9]": {"settings": "5 min, 5 minutes, read-out: SPEED OF CHARCOAL PARTICLES 5 Minutes % Δ vs.Bas. x̄ ± ES"}, "[10]": {"settings": "10 min, 10 minutes, * p <0.05, read-out: SPEED OF CHARCOAL PARTICLES 10 Minutes % Δ vs.Bas. x̄ ± ES"}, "[11]": {"settings": "20 min, 20 minutes, ** p <0.01, read-out: SPEED OF CHARCOAL PARTICLES 20 Minutes % Δ vs.Bas. x̄ ± ES"}}, "note": "Read-outs that look alike come from different tables or passages of the source."}
{"smiles": "O=C(Nc1c(Br)cc(Br)cc1CN[C@H]1CC[C@H](O)CC1)c1cccs1", "note": "[PU 163, 4-/ /(2-(2-thenoyl)-amino-3,5-dibromophenyl)-methyl/amino/cy-clohexanol]", "values": [{"measurement": "SODIUM FLUORESCEIN % vs. control", "setting": "[1]", "value": 39.3, "unit": "%"}, {"measurement": "percent regression (lesions degrees)", "setting": "[2]", "value": 62, "unit": "%"}, {"measurement": "LD50", "setting": "[3]; mouse", "value": "> 2500", "unit": "mg/kg"}, {"measurement": "LD50", "setting": "[3]; rat", "value": "> 5000", "unit": "mg/kg"}, {"measurement": "SPEED OF CHARCOAL PARTICLES 5 Minutes mm/min. x̄ ± ES", "setting": "[4]; 5 minutes", "value": "8.7 ±2.82", "unit": "mm/min."}, {"measurement": "SPEED OF CHARCOAL PARTICLES 10 Minutes mm/min x̄ ± ES", "setting": "[4]; 10 minutes", "value": "10.2 ±2.02", "unit": "mm/min"}, {"measurement": "SPEED OF CHARCOAL PARTICLES 20 Minutes mm/min. x̄ ± ES", "setting": "[4]; 20 minutes", "value": "11.5 ±2.38", "unit": "mm/min."}, {"measurement": "activation at 100 µg/mL", "setting": "[4]; [9]", "value": "24.3 ± 7.8", "unit": "%"}, {"measurement": "activation at 100 µg/mL", "setting": "[4]; [10]", "value": 45.7, "unit": "%"}, {"measurement": "activation at 100 µg/mL", "setting": "[4]; [11]", "value": 64.3, "unit": "%"}, {"measurement": "SPEED OF CHARCOAL PARTICLES Basal mm/min. x̄ ± ES", "setting": "[4]", "value": "7.00 ±1.40", "unit": "mm/min."}, {"measurement": "activity of reducing emphysema", "setting": "[5]", "value": "high activity of reducing emphysema"}, {"measurement": "concentrations in the organs (pulmonary level)", "setting": "[6]", "value": "larger amounts of Ambroxol at the pulmonary level"}, {"measurement": "plasma concentrations as Ambroxol", "setting": "[6]; compared with Ambroxol treated group", "value": "detected at prolonged times"}, {"measurement": "Internal pulmonary pressure (cm. H2O)", "setting": "[7]; de-insufflation, 0.5 cm^3", "value": 0.35, "unit": "cm. H2O"}, {"measurement": "Internal pulmonary pressure (cm. H2O)", "setting": "[7]; de-insufflation, 1 cm^3", "value": 1.4, "unit": "cm. H2O"}, {"measurement": "Internal pulmonary pressure (cm. H2O)", "setting": "[7]; de-insufflation, 1.5 cm^3", "value": 2.5, "unit": "cm. H2O"}, {"measurement": "Internal pulmonary pressure (cm. H2O)", "setting": "[7]; de-insufflation, 2 cm^3", "value": 3.9, "unit": "cm. H2O"}, {"measurement": "Internal pulmonary pressure (cm. H2O)", "setting": "[7]; de-insufflation, 2.5 cm^3", "value": 5.2, "unit": "cm. H2O"}, {"measurement": "Internal pulmonary pressure (cm. H2O)", "setting": "[7]; de-insufflation, 3 cm^3", "value": 6.75, "unit": "cm. H2O"}, {"measurement": "Internal pulmonary pressure (cm. H2O)", "setting": "[7]; insufflation, 0.5 cm^3", "value": 2.2, "unit": "cm. H2O"}, {"measurement": "Internal pulmonary pressure (cm. H2O)", "setting": "[7]; insufflation, 1 cm^3", "value": 3.8, "unit": "cm. H2O"}, {"measurement": "Internal pulmonary pressure (cm. H2O)", "setting": "[7]; insufflation, 1.5 cm^3", "value": 5.35, "unit": "cm. H2O"}, {"measurement": "Internal pulmonary pressure (cm. H2O)", "setting": "[7]; insufflation, 2 cm^3", "value": 6.5, "unit": "cm. H2O"}, {"measurement": "Internal pulmonary pressure (cm. H2O)", "setting": "[7]; insufflation, 2.5 cm^3", "value": 7.6, "unit": "cm. H2O"}, {"measurement": "Internal pulmonary pressure (cm. H2O)", "setting": "[7]; insufflation, 3 cm^3", "value": 8.45, "unit": "cm. H2O"}, {"measurement": "Internal pulmonary pressure (cm. H2O)", "setting": "[7]; insufflation, 3.5 cm^3", "value": 9, "unit": "cm. H2O"}]}
{"smiles": "Nc1c(Br)cc(Br)cc1CN[C@H]1CC[C@H](O)CC1", "note": "[Ambroxol, 4-/ /(2-amino-3,5-dibromophenyl)-methyl/amino/cyclohexanol, reference compound]", "values": [{"measurement": "SODIUM FLUORESCEIN % vs. control", "setting": "[1]", "value": 32.1, "unit": "%"}, {"measurement": "percent regression (lesions degrees)", "setting": "[2]", "value": 38, "unit": "%"}, {"measurement": "LD50", "setting": "[3]; mouse", "value": "> 2500", "unit": "mg/kg"}, {"measurement": "LD50", "setting": "[3]; rat", "value": "> 5000", "unit": "mg/kg"}, {"measurement": "SPEED OF CHARCOAL PARTICLES 5 Minutes mm/min. x̄ ± ES", "setting": "[4]; 5 minutes", "value": "8.2 ±2.12", "unit": "mm/min."}, {"measurement": "SPEED OF CHARCOAL PARTICLES 10 Minutes mm/min x̄ ± ES", "setting": "[4]; 10 minutes", "value": "9.5 ±1.62", "unit": "mm/min"}, {"measurement": "SPEED OF CHARCOAL PARTICLES 20 Minutes mm/min. x̄ ± ES", "setting": "[4]; 20 minutes", "value": "10.2 ±2.31", "unit": "mm/min."}, {"measurement": "activation at 100 µg/mL", "setting": "[4]; [9]", "value": "28.1 ± 3.54", "unit": "%"}, {"measurement": "activation at 100 µg/mL", "setting": "[4]; [10]", "value": 57.6, "unit": "%"}, {"measurement": "activation at 100 µg/mL", "setting": "[4]; [11]", "value": 59.4, "unit": "%"}, {"measurement": "SPEED OF CHARCOAL PARTICLES Basal mm/min. x̄ ± ES", "setting": "[4]", "value": "6.4 ±1.30", "unit": "mm/min."}, {"measurement": "Internal pulmonary pressure (cm. H2O)", "setting": "[7]; de-insufflation, 0.5 cm^3", "value": 0.25, "unit": "cm. H2O"}, {"measurement": "Internal pulmonary pressure (cm. H2O)", "setting": "[7]; de-insufflation, 1 cm^3", "value": 1.1, "unit": "cm. H2O"}, {"measurement": "Internal pulmonary pressure (cm. H2O)", "setting": "[7]; de-insufflation, 1.5 cm^3", "value": 2.3, "unit": "cm. H2O"}, {"measurement": "Internal pulmonary pressure (cm. H2O)", "setting": "[7]; de-insufflation, 2 cm^3", "value": 3.3, "unit": "cm. H2O"}, {"measurement": "Internal pulmonary pressure (cm. H2O)", "setting": "[7]; de-insufflation, 2.5 cm^3", "value": 4.6, "unit": "cm. H2O"}, {"measurement": "Internal pulmonary pressure (cm. H2O)", "setting": "[7]; de-insufflation, 3 cm^3", "value": 6.1, "unit": "cm. H2O"}, {"measurement": "Internal pulmonary pressure (cm. H2O)", "setting": "[7]; insufflation, 0.5 cm^3", "value": 2.45, "unit": "cm. H2O"}, {"measurement": "Internal pulmonary pressure (cm. H2O)", "setting": "[7]; insufflation, 1 cm^3", "value": 4.1, "unit": "cm. H2O"}, {"measurement": "Internal pulmonary pressure (cm. H2O)", "setting": "[7]; insufflation, 1.5 cm^3", "value": 5.6, "unit": "cm. H2O"}, {"measurement": "Internal pulmonary pressure (cm. H2O)", "setting": "[7]; insufflation, 2 cm^3", "value": 6.9, "unit": "cm. H2O"}, {"measurement": "Internal pulmonary pressure (cm. H2O)", "setting": "[7]; insufflation, 2.5 cm^3", "value": 7.9, "unit": "cm. H2O"}, {"measurement": "Internal pulmonary pressure (cm. H2O)", "setting": "[7]; insufflation, 3 cm^3", "value": 8.7, "unit": "cm. H2O"}, {"measurement": "Internal pulmonary pressure (cm. H2O)", "setting": "[7]; insufflation, 3.5 cm^3", "value": 9.3, "unit": "cm. H2O"}, {"measurement": "inhibiting activity on elastase", "setting": "[8]", "value": "practically inactive"}]}
